The text below walks through data of publication PMC9655618 (Cancers, 2022).

Assay [1] has as its system T47D estrogen-depleted cells. Description: E2-induced proliferation of estrogen-depleted cells (AUC of growth kinetics). Format: cell-based. The conditions noted are these: E2-depleted conditions. As to the method: (§1) To monitor long-term growth, human ER+ BC (T47-D, MCF-7, MCF-7/BUS), ER+ endometrial (Ishiwaka, High Point, NC, USA), or non-malignant breast (MCF-10A) cells were seeded at 3000–6000 cells per well. […] When indicated, cells were estrogen-deprived in a 10DCC-FBS supplemented medium for one week. […] Cytotoxicity was monitored by using YOYO-1 (Invitrogen, Waltham, MA, USA). Cell proliferation and cytotoxicity were monitored by sequential real-time microphotographs in an IncuCyte HD real-time imaging system (Essen BioScience, Hertfordshire, UK) for 5–10 days. The area under the curve (AUC) was then analyzed to know both the kinetics and dose-effect relationships. […] Next, cells were treated with VEH (0.05% DMSO) or test compounds for 5–10 days. Spheroid size and cell cytotoxicity were recorded with the Incucyte SX5 Live-Cell Analysis Instrument (Sartorius AG, Göttingen, Germany). To calculate the spheroid growth area, confluence measurements were taken considering the largest brightfield object area (µm^2). Cytotoxicity was monitored by using YOYO-1 (Essen Bioscience, Hertfordshire, UK).

The test system of assay [2] is MCF-10A cells. Description: MTT cell viability assay. Particulars: Homo sapiens, MCF-10A, 72 h, 10%FBS growth media. Format: cell-based, human. As to the method: (§2) Straightforward, the tetrazolium salt 3-(4,5-methyltiazol-2yl-)-2,5diphenyl-tetrazolium bromide (MTT) (Applichen, Darmstadt, Germany) was added to cells, incubated for 2–4 h at 37 °C, and lysed in 10% SDS.

The subject of assay [3] is MCF-7 cells. Description: MTT cell viability assay. Format: cell-based, human. The conditions noted are these: Homo sapiens, MCF7, 72 h, 10%FBS growth media. As to the method:
as §2

Assay [4] concerns Ishikawa cells. Description: MTT cell viability assay. Format: cell-based, human. Particulars: Homo sapiens, Ishikawa, read-out: IC50 (μM) ISHIKAWA, 72 h, 10%FBS growth media. As to the method:
as §2

The test system of assay [5] is MDA-MB-231 cells. As to the kind of experiment: MTT cell viability assay. Format: cell-based, human. The conditions noted are these: Homo sapiens, MDA-MB-231, 72 h, 10%FBS growth media. How it is done: as §2
The subject of assay [6] is SK-BR-3 cells. Description: MTT cell viability assay. The class given is cell-based, human. Particulars: Homo sapiens, SK-BR-3, 72 h, 10%FBS growth media. How it is done: as §2
The subject of assay [7] is BT-549 cells. As to the kind of experiment: MTT cell viability assay. The class given is cell-based, human. Particulars: Homo sapiens, BT-549, 72 h, 10%FBS growth media. As to the method:
as §2

Assay [8] concerns Hs-578T cells. Description: MTT cell viability assay. Format: cell-based, human. The conditions noted are these: Homo sapiens, Hs-578T, 72 h, 10%FBS growth media. As to the method: as §2
In assay [9] the test system is MCF-7/BUS cells. As to the kind of experiment: MTT cell viability assay. Format: cell-based, human. Particulars: Homo sapiens, MCF7/BUS; 72 h, 10%FBS growth media, MTT; read-out: IC50 (μM) MCF-7/BUS. How it is done: as §2
For assay [10], the system named is glucocorticoid receptor (GR)-dependent transcriptional activity, MDA-kb2 cells. As to the kind of experiment: GR-mediated transcription, luciferase reporter in MDA-kb2 cells (dexamethasone). Particulars: 100 nM Dexamethasone; compounds 1–10 µM.
The test system of assay [11] is androgen receptor (AR)-dependent transcriptional activity, MDA-kb2 cells. As to the kind of experiment: AR-mediated transcription, luciferase reporter in MDA-kb2 cells (testosterone). The conditions noted are these: 100 nM Testosterone; compounds 1–10 µM.
Assay [12] deals with T47D cancer cell spheroids. As to the kind of experiment: Real-time monitoring of 3D tumor spheroid growth. The conditions noted are these: 8 days. Format: cell-based, human.
For assay [13], the target named is T1, native ERα from rat uterine cytosol (Rattus norvegicus, UniProt P06211).
T1 construct: from tissue; host or cells: uterine cytosol of ovariectomized Sprague-Dawley rats
T1 sequence (P06211 whole entry): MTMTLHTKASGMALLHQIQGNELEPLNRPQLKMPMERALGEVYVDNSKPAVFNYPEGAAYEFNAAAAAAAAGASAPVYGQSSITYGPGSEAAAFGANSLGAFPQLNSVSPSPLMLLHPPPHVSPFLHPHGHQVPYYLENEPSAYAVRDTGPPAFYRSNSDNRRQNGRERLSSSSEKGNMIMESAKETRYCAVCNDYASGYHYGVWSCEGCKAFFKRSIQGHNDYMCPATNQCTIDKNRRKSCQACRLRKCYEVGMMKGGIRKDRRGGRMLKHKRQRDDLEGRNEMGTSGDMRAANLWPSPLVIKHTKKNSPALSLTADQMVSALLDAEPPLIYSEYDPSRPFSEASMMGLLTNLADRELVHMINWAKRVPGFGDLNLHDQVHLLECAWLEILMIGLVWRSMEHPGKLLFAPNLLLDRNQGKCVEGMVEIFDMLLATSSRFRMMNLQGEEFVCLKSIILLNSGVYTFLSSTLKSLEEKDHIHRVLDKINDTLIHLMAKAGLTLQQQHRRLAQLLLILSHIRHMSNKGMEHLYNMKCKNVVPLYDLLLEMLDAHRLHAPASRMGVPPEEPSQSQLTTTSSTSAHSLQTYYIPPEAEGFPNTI
Description: Radiolabeled E2 competitor binding assay in rat uterine cytosol (RUC). As to the method: Animal studies were approved by the Bioethics Committee of the University of Las Palmas de Gran Canaria (OEBA-ULPGC 40/2020), and the experiments were carried out according to OECD guidelines (ER-RVC OPPTS 890.1250). ER was obtained from rat uterine cytosol (RUC). Briefly, RUC was extracted from 8–12 weeks old Sprague-Dawley rats 13–16 days after they were ovariectomized under ketamine (75 mg/kg)/medetomidine (1 mg/kg) anesthesia. Uteri were removed, trimmed free of adipose tissue, blotted, weighed and frozen on liquid nitrogen until RUC isolation. Then, 100 mg of uteri per ml of ice-cold TEGM buffer (10 mM Tris, 1.5 mM EDTA, 10% glycerol, 3 mM MgCl2, 1 mM PMSF, 1 mM DTT, pH 7.4) were homogenized by using a Polytron PT3000 homogenizer (Kinematica, Malters, Switzerland) at 15,000 rpm for 3 bursts of 30″ each. The homogenate was sedimented, and the supernatant was centrifuged at 105,000 g for 60 min at 4 °C to obtain RUC. Protein concentration was determined by Bradford´s assay (Bio-Rad, Irvine, CA, USA), and 2 mg/mL of RUC was taken from all samples [35]. […] Then, 200 μL of DCC suspension (0.8% charcoal: 0.08% dextran; w:w) in cold TE buffer was added to each tube and incubated for 10 min before DCC was centrifuged at 3000 g for 10 min at 4 °C. Supernatant (200 μL) was obtained to measure total and non-specific bound radioactivity in TRICARB 4810 LSC counter (PerkinElmer). […]

The test system of assay [14] is MCF-7 cells. Description: Drug combination assay with 4-OHTAM (MTT, Chou-Talalay). The conditions noted are these: for IC50: Homo sapiens, MCF7, 72 h, read-out: IC50, cell viability inhibition, single agent.
Description: Cells were seeded at 5000 and 7500 cells, per well, respectively, and cell viability was assessed by MTT assays 72 h after treatment. Briefly, cells were incubated with constant ratio combinations of indicated test compounds by doubling dilutions of the individual drugs over a wide range of concentrations [43]. […] Dose-effect curves of the individual or combined compounds were plotted and assessed by the median effect method of Chou and Talalay [43] using Calcusyn software 2.0 (Biosoft, Cambridge, UK), thus obtaining the combination index (CI) values. CI values less than 1, equal to 1, and greater than 1 indicated synergism, addition, and antagonism, respectively.
Assay [15] concerns MCF-7 cells. As to the kind of experiment: Real-time monitoring of 2D cell growth (IncuCyte). The conditions noted are these: Homo sapiens, MCF7, 120 h; complete estrogenic media (10%FBS), 5 days, AUC. Format: cell-based. How it is done: as §1
[16] abbreviates: combination with 4-OHTAM, constant ratio, 72 h, CI <1 synergism.

Bounds are passed on as bounds.

Take `Cc1ccc(C2=CC(O)(c3ccccc3)N(Cc3ccccc3)C2=O)cc1C` (centres unmarked) [compound 32, 1-benzyl-3-(3,4-dimethylphenyl)-5-hydroxy-5-phenyl-1H-pyrrol-2(5H)-one]: the “estrogenic effect on growth” value in [1] is reported as “did not increase the growth of ER+ BC cells”. In addition, the IC50 turned out to be 0.08 µM in assay [2]; 2.54 ± 0.49 µM in assay [3]; 0.27 ± 0.09 µM in [4]; 7.63 ± 2.38 µM in assay [5]; 1.51 ± 0.09 µM in assay [6]; 4.89 ± 0.96 µM in [7]. Besides, the IC50 in [8] was greater than 10 µM; in [9], 5.32 ± 2.09 µM; in assay [13], 128400 ± 1250 nM; in assay [14], 690 nM; in [15] it was 1520 ± 1250 nM. Also, the “effect on DEX-induced luciferase activity” value in assay [10] is given as “Neither 4-OHTAM nor compounds 32 or 35 displayed cross-activation”. Besides, in assay [11], the “effect on T-induced luciferase activity” value is on record as “Neither 4-OHTAM nor compounds 32 or 35 displayed cross-activation”. Moreover, the “effect on spheroid growth” value in [12] was “reduced the growth of T47D cancer cell spheroids”. For the same molecule, the “CI for ED25” value in assay [14] (setting [16]) was determined as 0.762 ± 0.02. For the same molecule, in [14] (setting [16]), the “CI for ED75” value amounted to 0.6725 ± 0.06. In addition, the “CI for ED90” value in [14] (setting [16]) amounted to 0.6395 ± 0.09.
Turning to `O=C1C(c2ccc([N+](=O)[O-])cc2)=CC(O)(c2ccccc2)N1Cc1ccccc1` (centres unmarked) [compound 35, 1-benzyl-5-hydroxy-3-(4-nitrophenyl)-5-phenyl-1H-pyrrol-2(5H)-one], in [1], the “estrogenic effect on growth” value was “did not increase the growth of ER+ BC cells”. Besides, the IC50 in assay [2] stood at 3.16 ± 0.09 µM; in assay [3] it was 2.59 ± 0.34 µM; in assay [4], 1.29 ± 0.38 µM; in [5], 9.08 ± 0.93 µM; in [6], 2 ± 0.18 µM; in [7] it was 4.19 µM. In addition, the IC50 in assay [8] was 8.22 ± 1.78 µM; in assay [9] it was 2.64 ± 0.88 µM; in assay [13], 76600 ± 1300 nM; in [14], 2270 nM; in assay [15] it was 4300 ± 770 nM. Further, in assay [10], the “effect on DEX-induced luciferase activity” value is “Neither 4-OHTAM nor compounds 32 or 35 displayed cross-activation”. Also, the “effect on T-induced luciferase activity” value in [11] is recorded as “Neither 4-OHTAM nor compounds 32 or 35 displayed cross-activation”. Besides, the “effect on spheroid growth” value in [12] was “reduced the growth of T47D cancer cell spheroids”. Also, the “CI for ED75” value in [14] (setting [16]) was 0.26 ± 0.07. In addition, the “CI for ED90” value in assay [14] (setting [16]) is 0.32 ± 0.13.
